From the supplement of paper PMC10331698
± gives the standard deviation of the averaged measurements.

Assays:
Experiment in all cases: level (log10 ratio to DMSO vehicle control); higher = higher biomarker level / cell amount than vehicle control
[1] = compound: C=CC(=O)OCC(F)(F)C(F)(F)C(F)(F)C(F)(F)COC(=O)C=C [1H,1H,6H,6H-Perfluorohexane-1,6-diol diacrylate]; conditions: 6700 nM; in DMSO
Method: (§1)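 BioMAP Diversity Plus panel of 12 human primary cell co-culture systems (3C, 4H, LPS, SAg, BT, BF4T, BE3C, CASM3C, HDF3CGF, KF3CT, MyoF, Mphg). Compounds were added 1 h before stimulation and left for 24 h (MyoF 48 h; BT 72 h for soluble read-outs or 6 d for IgG). Biomarkers were read by ELISA, cytotoxicity by SRB, PBMC viability and proliferation by Alamar Blue. Each well value was divided by the mean of 8 DMSO control wells on the same plate and log10 transformed; duplicate blinded samples were tested at 4 concentrations.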

[2] = compound: FC(F)(I)C(F)(F)C(F)(F)C(F)(F)C(F)(F)C(F)(F)I [1,6-Diiodoperfluorohexane]; conditions: 6700 nM; in DMSO
Method: as §1

[3] = compound: O=C(CC(=O)C(F)(F)C(F)(F)C(F)(F)F)c1cccs1 [(Perfluorobutyryl)-2-thenoylmethane]; conditions: in DMSO
Method: as §1

[4] = compound: O=C(Cl)C(F)(F)C(F)(F)C(F)(F)C(=O)Cl [Hexafluoroglutaryl chloride]; conditions: in DMSO
Method: as §1

Tetrafluorosuccinic acid = compound: O=C(O)C(F)(F)C(F)(F)C(=O)O [Tetrafluorosuccinic acid]; conditions: in DMSO
Method: as §1

Perfluorooctanoic acid = compound: O=C(O)C(F)(F)C(F)(F)C(F)(F)C(F)(F)C(F)(F)C(F)(F)C(F)(F)F [Perfluorooctanoic acid]; conditions: in DMSO
Method: as §1

[5] = compound: OCC(F)(F)C(F)(F)C(F)(F)C(F)(F)C(F)(F)C(F)(F)C(F)(F)C(F)(F)C(F)(F)C(F)(F)C(F)(F)F [11:1 Fluorotelomer alcohol]; conditions: in DMSO
Method: as §1

[6] = compound: OCCCC(F)(F)C(F)(F)C(F)(F)C(F)(F)C(F)(F)C(F)(F)C(F)(F)C(F)(F)F [3-(Perfluorooctyl)propanol]; conditions: 6700 nM; in DMSO
Method: as §1

[7] = compound: OCCCCC(F)(F)C(F)(F)C(F)(F)C(F)(F)F [4:4 Fluorotelomer alcohol]; conditions: in DMSO
Method: as §1

HDF3CGF:CD106/VCAM-1
level (log10) [1]: -0.676 ± 0.061 | level (log10) [2]: -0.335 | level (log10) ([3]; 6700 nM): -0.0405 ± 0.018 | level (log10) ([3]; 20000 nM): 0.025 ± 0.0042 | level (log10) ([4]; 6700 nM): -0.013 ± 0.0085 | level (log10) ([4]; 20000 nM): 0.0205 ± 0.049 | level (log10) ([4]; 60000 nM): -0.041 ± 0.014 | level (log10) (Tetrafluorosuccinic acid; 6700 nM): 0.003 ± 0.027 | level (log10) (Tetrafluorosuccinic acid; 20000 nM): -0.029 ± 0.037 | level (log10) (Tetrafluorosuccinic acid; 60000 nM): -0.033 ± 0.045 | level (log10) (Perfluorooctanoic acid; 6700 nM): -0.0055 ± 0.005 | level (log10) (Perfluorooctanoic acid; 20000 nM): -0.011 ± 0.017 | level (log10) (Perfluorooctanoic acid; 60000 nM): -0.024 ± 0.013 | level (log10) ([5]; 1100 nM): -0.075 ± 0.011 | level (log10) ([5]; 3300 nM): -0.144 ± 0.013 | level (log10) ([5]; 10000 nM): -0.069 ± 0.075 | level (log10) [6]: -0.244 ± 0.013 | level (log10) ([7]; 6700 nM): -0.028 ± 0.083 | level (log10) ([7]; 20000 nM): -0.0125 ± 0.04 | level (log10) ([7]; 60000 nM): -0.0215 ± 0.0021

lMphg:SRB
level (log10) [1]: -0.0075 ± 0.0035 | level (log10) [2]: -0.028 | level (log10) ([3]; 6700 nM): -0.0175 ± 0.0064 | level (log10) ([3]; 20000 nM): -0.106 ± 0.029 | level (log10) ([4]; 6700 nM): 0.008 ± 0.0057 | level (log10) ([4]; 20000 nM): 0.012 | level (log10) ([4]; 60000 nM): 0.0075 ± 0.0092 | level (log10) (Tetrafluorosuccinic acid; 6700 nM): -0.008 ± 0.0014 | level (log10) (Tetrafluorosuccinic acid; 20000 nM): 0.001 | level (log10) (Tetrafluorosuccinic acid; 60000 nM): 0.001 ± 0.013 | level (log10) (Perfluorooctanoic acid; 6700 nM): -0.008 ± 0.0071 | level (log10) (Perfluorooctanoic acid; 20000 nM): -0.0005 ± 0.005 | level (log10) (Perfluorooctanoic acid; 60000 nM): 0.011 ± 0.017 | level (log10) ([5]; 1100 nM): 0.0045 ± 0.00071 | level (log10) ([5]; 3300 nM): 0.001 | level (log10) ([5]; 10000 nM): -0.0205 ± 0.005 | level (log10) [6]: 0.0045 ± 0.0078 | level (log10) ([7]; 6700 nM): -0.015 ± 0.0028 | level (log10) ([7]; 20000 nM): -0.0055 ± 0.0035 | level (log10) ([7]; 60000 nM): 0.004 ± 0.033

CASM3C:CXCL9/MIG
level (log10) [1]: -0.154 ± 0.031 | level (log10) [2]: -0.018 | level (log10) ([3]; 6700 nM): -0.0295 ± 0.018 | level (log10) ([3]; 20000 nM): -0.0945 ± 0.077 | level (log10) ([4]; 6700 nM): 0.0055 ± 0.043 | level (log10) ([4]; 20000 nM): -0.002 ± 0.04 | level (log10) ([4]; 60000 nM): 0.0115 ± 0.1 | level (log10) (Tetrafluorosuccinic acid; 6700 nM): -0.006 ± 0.0099 | level (log10) (Tetrafluorosuccinic acid; 20000 nM): -0.0135 ± 0.0021 | level (log10) (Tetrafluorosuccinic acid; 60000 nM): 0.014 ± 0.0085 | level (log10) (Perfluorooctanoic acid; 6700 nM): 0.016 ± 0.0085 | level (log10) (Perfluorooctanoic acid; 20000 nM): -0.0065 ± 0.04 | level (log10) (Perfluorooctanoic acid; 60000 nM): 0.042 ± 0.076 | level (log10) ([5]; 1100 nM): 0.0005 ± 0.0035 | level (log10) ([5]; 3300 nM): -0.002 ± 0.0028 | level (log10) ([5]; 10000 nM): 0.014 ± 0.021 | level (log10) [6]: -0.042 ± 0.0028 | level (log10) ([7]; 6700 nM): 0.0115 ± 0.0035 | level (log10) ([7]; 20000 nM): 0.0065 ± 0.026 | level (log10) ([7]; 60000 nM): 0.0345 ± 0.059

CASM3C:CD87/uPAR
level (log10) [1]: -0.0235 ± 0.013 | level (log10) [2]: 0.001 | level (log10) ([3]; 6700 nM): -0.046 ± 0.018 | level (log10) ([3]; 20000 nM): -0.0065 ± 0.005 | level (log10) ([4]; 6700 nM): -0.014 ± 0.045 | level (log10) ([4]; 20000 nM): -0.0225 ± 0.012 | level (log10) ([4]; 60000 nM): -0.015 ± 0.038 | level (log10) (Tetrafluorosuccinic acid; 6700 nM): -0.01 ± 0.021 | level (log10) (Tetrafluorosuccinic acid; 20000 nM): -0.024 ± 0.013 | level (log10) (Tetrafluorosuccinic acid; 60000 nM): -0.0185 ± 0.0021 | level (log10) (Perfluorooctanoic acid; 6700 nM): -0.049 ± 0.047 | level (log10) (Perfluorooctanoic acid; 20000 nM): -0.021 ± 0.082 | level (log10) (Perfluorooctanoic acid; 60000 nM): -0.0035 ± 0.067 | level (log10) ([5]; 1100 nM): 0.0055 ± 0.025 | level (log10) ([5]; 3300 nM): -0.004 ± 0.021 | level (log10) ([5]; 10000 nM): 0.0085 ± 0.032 | level (log10) [6]: -0.021 ± 0.0085 | level (log10) ([7]; 6700 nM): -0.009 ± 0.028 | level (log10) ([7]; 20000 nM): -0.0135 ± 0.029 | level (log10) ([7]; 60000 nM): -0.0045 ± 0.025

HDF3CGF:CXCL8/IL-8
level (log10) [1]: -0.021 ± 0.0057 | level (log10) [2]: -0.276 | level (log10) ([3]; 6700 nM): 0.01 ± 0.0014 | level (log10) ([3]; 20000 nM): 0.015 ± 0.0071 | level (log10) ([4]; 6700 nM): 0.0025 ± 0.012 | level (log10) ([4]; 20000 nM): -0.0015 ± 0.005 | level (log10) ([4]; 60000 nM): 0.013 ± 0.018 | level (log10) (Tetrafluorosuccinic acid; 6700 nM): -0.01 ± 0.0085 | level (log10) (Tetrafluorosuccinic acid; 20000 nM): -0.004 ± 0.0085 | level (log10) (Tetrafluorosuccinic acid; 60000 nM): -0.0055 ± 0.0078 | level (log10) (Perfluorooctanoic acid; 6700 nM): 0.0015 ± 0.0021 | level (log10) (Perfluorooctanoic acid; 20000 nM): 0.002 ± 0.0014 | level (log10) (Perfluorooctanoic acid; 60000 nM): 0.015 ± 0.014 | level (log10) ([5]; 1100 nM): -0.002 ± 0.0057 | level (log10) ([5]; 3300 nM): -0.007 | level (log10) ([5]; 10000 nM): -0.001 | level (log10) [6]: -0.0145 ± 0.0092 | level (log10) ([7]; 6700 nM): -0.0065 ± 0.0035 | level (log10) ([7]; 20000 nM): 0.01 ± 0.0071 | level (log10) ([7]; 60000 nM): 0.01 ± 0.0014

KF3CT:CXCL10/IP-10
level (log10) [1]: -0.0365 ± 0.005 | level (log10) [2]: -0.005 | level (log10) ([3]; 6700 nM): -0.0205 ± 0.00071 | level (log10) ([3]; 20000 nM): -0.018 ± 0.0014 | level (log10) ([4]; 6700 nM): -0.0105 ± 0.013 | level (log10) ([4]; 20000 nM): 0.0045 ± 0.0035 | level (log10) ([4]; 60000 nM): -0.0025 ± 0.015 | level (log10) (Tetrafluorosuccinic acid; 6700 nM): -0.006 ± 0.0028 | level (log10) (Tetrafluorosuccinic acid; 20000 nM): -0.0055 ± 0.0064 | level (log10) (Tetrafluorosuccinic acid; 60000 nM): -0.0075 ± 0.00071 | level (log10) (Perfluorooctanoic acid; 6700 nM): -0.006 ± 0.0042 | level (log10) (Perfluorooctanoic acid; 20000 nM): -0.01 ± 0.0042 | level (log10) (Perfluorooctanoic acid; 60000 nM): -0.0275 ± 0.0064 | level (log10) ([5]; 1100 nM): 0.003 ± 0.0042 | level (log10) ([5]; 3300 nM): -0.002 ± 0.0057 | level (log10) ([5]; 10000 nM): 0.0085 ± 0.0035 | level (log10) [6]: -0.053 ± 0.02 | level (log10) ([7]; 6700 nM): 0.0105 ± 0.04 | level (log10) ([7]; 20000 nM): 0.02 ± 0.03 | level (log10) ([7]; 60000 nM): 0.0275 ± 0.037

BE3C:MMP-1
level (log10) [1]: -0.0035 ± 0.011 | level (log10) [2]: 0.014 | level (log10) ([3]; 6700 nM): 0.0945 ± 0.015 | level (log10) ([3]; 20000 nM): -0.051 ± 0.017 | level (log10) ([4]; 6700 nM): -0.001 ± 0.014 | level (log10) ([4]; 20000 nM): -0.008 ± 0.014 | level (log10) ([4]; 60000 nM): 0.0065 ± 0.016 | level (log10) (Tetrafluorosuccinic acid; 6700 nM): -0.0025 ± 0.011 | level (log10) (Tetrafluorosuccinic acid; 20000 nM): -0.0125 ± 0.0078 | level (log10) (Tetrafluorosuccinic acid; 60000 nM): 0.032 ± 0.038 | level (log10) (Perfluorooctanoic acid; 6700 nM): -0.0085 ± 0.012 | level (log10) (Perfluorooctanoic acid; 20000 nM): 0.044 | level (log10) (Perfluorooctanoic acid; 60000 nM): 0.226 ± 0.035 | level (log10) ([5]; 1100 nM): -0.0275 ± 0.018 | level (log10) ([5]; 3300 nM): -0.0685 ± 0.015 | level (log10) ([5]; 10000 nM): -0.077 | level (log10) [6]: 0.064 ± 0.0042 | level (log10) ([7]; 6700 nM): 0.0005 ± 0.03 | level (log10) ([7]; 20000 nM): 0.006 ± 0.02 | level (log10) ([7]; 60000 nM): 0.022 ± 0.05
